Assay results taken from EP4775582A1, “MACROCYCLIC COMPOUND AND ANTIBODY-DRUG CONJUGATE THEREOF” (Genfleet Therapeutics (Shanghai) Inc., priority 2023, dated 2025).
Like-named read-outs stand apart in the source and are kept apart here.

How the values were obtained:
Format in all cases: cell-based, human
AsPC-1 cells = experiment: 3D cell proliferation assay (CellTiter Glo-3D), AsPC-1
Procedure: (§1) The cells were digested with trypsin (containing EDTA), collected in their respective low-serum complete media containing 2% FBS (for MIA Paca-2 cell culture: DMEM + 2% FBS + 0.5% Horse serum + 1% PS), and counted. After the cell density was adjusted as required, 200 MIA PaCa-2 cells, 800 AsPC-1 cells, 800 NCI-H441 cells, or 400 NCI-H1975 cells per well were seeded into a 384-well cell culture plate, with the volume of the medium in each well being 45 µL. The cell culture plate was incubated in an incubator at 37 °C with 5% CO2 overnight. […] On the day after cell seeding, 5 µL of the 10× compound stock solution was added to each cell culture well. […] In addition to the compound-treated wells described above, cell-containing DMSO control wells (with 5 µL of the complete medium containing 1% DMSO added to each well) and cell-free medium control wells (containing 50 µL of the complete medium with 2% FBS) were also set. The culture plate was incubated in an incubator at 37 °C with 5% CO2 for another 5 days, and then 30 µL of CellTiter-Glo working solution was added to each well. The mixture was well mixed, incubated for 30 min, left to stand at room temperature for 30 min, and then transferred to a white-bottomed, opaque 384-well assay plate at 40 µL/well. […] Using an XLfit software, the IR (%) values were plotted against the logarithm of the compound concentrations, and the dose-response curves were fitted using the four-parameter method to calculate the IC50 values.

AsPC-1 p-ERK = experiment: Cell p-ERK assay (HTRF), AsPC-1 cells
Procedure: (§2) The cells were digested with trypsin (containing EDTA), collected in their corresponding complete media, and counted. The density of the cell suspensions was adjusted with their corresponding complete media, and 10000 AsPC-1 cells or 20000 NCI-H441 cells per well were seeded into a 96-well cell culture plate, with the volume of the medium in each well being 80 µL. The cell culture plate was incubated in an incubator at 37 °C with 5% CO2 overnight. […] On the day after cell seeding, 20 µL of the 5× compound stock solution was added to each cell culture well. […] In addition to the compound-treated wells described above, cell-containing DMSO control wells were also set. A complete medium containing 0.5% DMSO was added at 20 µL/well. After the mixture was well mixed, the culture plate was incubated in the incubator at 37 °C with 5% CO2 for another 3 h. The medium was then removed from the culture wells, and 50 µL of cell lysis buffer (from Advance ERK phospho-T202/Y204 kit) was added to each well. The mixture was well mixed and incubated for 30 min. Then, 16 µL of the mixture was transferred to a white-bottomed, opaque 96-well assay plate, and separately, 16 µL of cell lysis buffer was added to additional wells (serving as blank wells) in the assay plate. After the transfer was completed, 4 µL of p-ERK HTRF antibody mixture (from Advance ERK phospho-T202/Y204 kit) was added to each well of the assay plate, followed by a 4-hour incubation. […] Using an XLfit software, the IR (%) values were plotted against the logarithm of the compound concentrations, and the dose-response curves were fitted using the four-parameter method to calculate the IC50 values.

NCI-H441 cells = experiment: 3D cell proliferation assay (CellTiter Glo-3D), NCI-H441; settings: NCI-H441 cells (KRAS G12V), 2% FBS, 5 days, read-out: H441 AP IC50
Procedure: as §1

H441 p-ERK = experiment: Cell p-ERK assay (HTRF), NCI-H441 cells; settings: NCI-H441 cells (KRAS G12V), 3 h incubation
Procedure: as §2

[1] = Homo sapiens, ASPC1, 120 h, read-out: AsPC-1 AP IC50(nM)
[2] = Homo sapiens, ASPC1, 3 h, read-out: AsPC-1 p-ERK IC50(nM)

SMILES | IC50 (AsPC-1 cells; AsPC-1 cells (KRAS G12D), 3D, 2% FBS, 5 days, read-out: AsPC-1 AP IC50) | IC50 (AsPC-1 p-ERK; AsPC-1 cells (KRAS G12D), 3 h incubation, read-out: AsPC-1 p-ERK IC50) | IC50 (NCI-H441 cells) | IC50 (H441 p-ERK) | IC50 (AsPC-1 cells; [1]) | IC50 (AsPC-1 p-ERK; [2]) | IC50 (NCI-H441 cells; Homo sapiens, 120 h) | IC50 (H441 p-ERK; Homo sapiens) | IC50 (AsPC-1 cells; Homo sapiens, ASPC1, 120 h, AsPC-1 cells (KRAS G12D), 3D, 2% FBS, 5 days, read-out: AsPC-1 AP IC50) | IC50 (AsPC-1 p-ERK; Homo sapiens, ASPC1, AsPC-1 cells (KRAS G12D), 3 h incubation, read-out: AsPC-1 p-ERK IC50)
CO[C@@H](C)c1ncc(C#CCN2CCS(=O)(=O)CC2)cc1-c1c2c3cc(ccc3n1CC(C)O)-c1csc(n1)C[C@H](NC(=O)[C@H]1[C@H](C)[C@@H]1C)C(=O)N1CCC[C@H](N1)C(=O)OCC(C)(C)C2 (atropisomer, axis not shown; (Ra)) [Compound Z3, (1r,2R,3S)-N-((6^3S,4S,Z)-(Ra)-1^2-(5-(3-(1,1-dioxidothiomorpholino)prop-1-yn-1-yl)-2-((S)-1-methoxyethyl)pyridin-3-yl)-1^1-(2-hydroxypropyl)-10,10-dimethyl-5,7-dioxo-6,6',6',6^46^5,6^6-hexahydro-1^1H-8-oxa-2(4,2)-thiazola-1(5,3)-indola-6(1,3)-pyridazinacycloundecaphane-4-yl)-2,3-dimethylcyclopropane-1-carboxamide] | 0.18 nM | 0.59 nM | 280 pM | 720 pM | – | – | – | – | – | –
CCn1c(-c2cc(C#CCN3CCS(=O)(=O)CC3)cnc2[C@H](C)OC)c2c3cc(ccc31)-c1csc(n1)C[C@H](NC(=O)[C@@H]1[C@@H](C)[C@H]1CO)C(=O)N1CCC[C@H](N1)C(=O)OCC(C)(C)C2 (atropisomer, axis not shown; (Ra)) [Compound Z7-1, (1R,2R,3S)-N-((6^3S,4S,Z)-(Ra)-1^2-(5-(3-(1,1-dioxidothiomorpholino)prop-1-yn-1-yl)-2-((S)-1-methoxyethyl)pyridin-3-yl)-1^1-ethyl-10,10-dimethyl-5,7-dioxo-6^1,6^2,6^3,6^4,6^5,6^6-hexahydro-1^1H-8-oxa-2(4,2)-thiazola-1(5,3)-indola-6(1,3)-pyridazinacycloundecaphane-4-yl)-2-(hydroxymethyl)-3-methylcyclopropane-1-carboxamide] | – | – | – | – | 0.52 nM | 0.51 nM | 320 pM | 500 pM | – | –
CCn1c(-c2cc(C#CCN3CCS(=O)(=O)CC3)cnc2[C@H](C)OC)c2c3cc(ccc31)-c1csc(n1)C[C@H](NC(=O)[C@H]1[C@H](C)[C@@H]1CO)C(=O)N1CCC[C@H](N1)C(=O)OCC(C)(C)C2 (atropisomer, axis not shown; (Ra)) [Compound Z7-2, (1S,2S,3R)-N-((6^3S,4S,Z)-(Ra)-1^2-(5-(3-(1,1-dioxidothiomorpholino)prop-1-yn-1-yl)-2-((S)-1-methoxyethyl)pyridin-3-yl)-1^1-ethyl-10,10-dimethyl-5,7-dioxo-6^1,6^2,6^3,6^4,6^5,6^6-hexahydro-1^1H-8-oxa-2(4,2)-thiazola-1(5,3)-indola-6(1,3)-pyridazinacycloundecaphane-4-yl)-2-(hydroxymethyl)-3-methylcyclopropane-1-carboxamide] | – | – | – | – | 0.56 nM | 0.42 nM | 350 pM | 450 pM | – | –
CCn1c(-c2cc(C#CCN3CCCN(C(=O)CO)CC3)cnc2[C@H](C)OC)c2c3cc(ccc31)-c1csc(n1)C[C@H](NC(=O)[C@H]1[C@H](C)[C@@H]1C)C(=O)N1CCC[C@H](N1)C(=O)OCC(C)(C)C2 (atropisomer, axis not shown; (Ra)) [Compound Z10, (1r,2R,3S)-N-((6^3S,4S,Z)-1^1-ethyl-(Ra)-1^2-(5-(3-(4-(2-hydroxyacetyl)-1,4-diazepin-1-yl)prop-1-yn-1-yl)-2-((S)-1-methoxyethyl)pyridin-3-yl)-10,10-dimethyl-5,7-dioxo-6^1,6^2,6^3,6^4,6^5,6^6-hexahydro-1^1H-8-oxa-2(4,2)-thiazola-1(5,3)-indola-6(1,3)-pyridazinacycloundecaphane-4-yl)-2,3-dimethylcyclopropane-1-carboxamide] | – | – | – | – | 0.16 nM | 0.12 nM | 130 pM | 180 pM | – | –
CCn1c(-c2cc(C#CCN3CCC(C(=O)NCCO)CC3)cnc2[C@H](C)OC)c2c3cc(ccc31)-c1csc(n1)C[C@H](NC(=O)[C@H]1[C@H](C)[C@@H]1C)C(=O)N1CCC[C@H](N1)C(=O)OCC(C)(C)C2 (atropisomer, axis not shown; (Ra)) [Compound Z12] | – | – | – | – | – | – | 210 pM | 150 pM | 0.44 nM | 0.36 nM
CCn1c(-c2cc(C#CCN3CCS(=O)(=O)CC3)cnc2[C@H](C)OC)c2c3cc(ccc31)-c1csc(n1)C[C@H](NC(=O)[C@@H](NC)C1CCCC1)C(=O)N1CCC[C@H](N1)C(=O)OCC(C)(C)C2 (atropisomer, axis not shown; (Ra)) [Compound Z15, (2S)-2-methylamino-2-cyclopentyl-N-((6^3S,4S,Z)-(Ra)-1^2-(5-(3-(1,1-dioxidothiomorpholino)prop-1-yn-1-yl)-2-((S)-1-methoxyethyl)pyridin-3-yl)-1^1-ethyl-10,10-dimethyl-5,7-dioxo-6^1,6^2,6^3,6^4,6^5,6^6-hexahydro-1^1H-8-oxa-2(4,2)-thiazola-1(5,3)-indola-6(1,3)-pyridazinacycloundecaphane-4-yl)acetamide] | – | – | – | – | 0.31 nM | 0.42 nM | 350 pM | 240 pM | – | –
CCn1c(-c2cc(C#CCN3CCS(=O)(=O)CC3)cnc2[C@H](C)OC)c2c3cc(ccc31)-c1csc(n1)C[C@H](NC(=O)[C@@H](NC)C1CCC1)C(=O)N1CCC[C@H](N1)C(=O)OCC(C)(C)C2 (atropisomer, axis not shown; (Ra)) [Compound Z17, (2S)-2-methylamino-2-cyclobutyl-N-((6^3S,4S,Z)-(Ra)-1^2-(5-(3-(1,1-dioxidothiomorpholino)prop-1-yn-1-yl)-2-((S)-1-methoxyethyl)pyridin-3-yl)-1^1-ethyl-10,10-dimethyl-5,7-dioxo-6^1,6^2,6^3,6^4,6^5,6^6-hexahydro-1^1H-8-oxa-2(4,2)-thiazola-1(5,3)-indola-6(1,3)-pyridazinacycloundecaphane-4-yl)acetamide] | – | – | – | – | 0.46 nM | 0.26 nM | 350 pM | 220 pM | – | –
CCn1c(-c2cc(C#CCN3CCCN(C(=O)CO)CC3)cnc2[C@H](C)OC)c2c3cc(ccc31)-c1csc(n1)C[C@H](NC(=O)[C@H]1[C@@H]3COC[C@@H]31)C(=O)N1CCC[C@H](N1)C(=O)OCC(C)(C)C2 (atropisomer, axis not shown; (Ra)) [Compound Z19] | – | – | – | – | 0.41 nM | 0.24 nM | 440 pM | 130 pM | – | –
CCn1c(-c2cc(C#CCN3CCC(C#N)(CO)CC3)cnc2[C@H](C)OC)c2c3cc(ccc31)-c1csc(n1)C[C@H](NC(=O)[C@H]1[C@H](C)[C@@H]1C)C(=O)N1CCC[C@H](N1)C(=O)OCC(C)(C)C2 (atropisomer, axis not shown; (Ra)) [Compound Z23, (1r,2R,3S)-N-((6^3S,4S,Z)-(Ra)-1^2-(5-(3-(4-cyano-4-(hydroxymethyl)piperidin-1-yl)prop-1-yn-1-yl)-2-((S)-1-methoxyethyl)pyridin-3-yl)-1^1-ethyl-10,10-dimethyl-5,7-dioxo-6^1,6^2,6^3,6^4,6^5,6^6-hexahydro-1^1H-8-oxa-2(4,2)-thiazola-1(5,3)-indola-6(1,3)-pyridazinacycloundecaphane-4-yl)-2,3-dimethylcyclopropane-1-carboxamide] | – | – | – | – | 0.03 nM | 0.08 nM | 60 pM | 100 pM | – | –
